# From patent US20080089956A1, “NITRIC OXIDE IN TREATMENT OF INFLAMMATION” (AGA AB, priority 2003, published 2008)
# “Also recorded” adds a separate entry of the source.
# Tests used:
# Type in all cases: in vivo, piglets of Swedish country breed
# [1] = tested on: endotoxin pig model (LPS-induced acute lung injury and septic shock); assay: Haemodynamics and arterial oxygenation in endotoxin (LPS) pig model
# Procedure: (§1) The pigs were divided into 5 groups: • 1. Normal control group • 2. Endotoxin (lipopolysaccharide, LPS) group • 3. LPS+INO group • 4. LPS+steoid group • 5. LPS +INO +steroid group • The different protocols are shown schematically in FIG. 1 and are described below. 1. Healthy Control Group (n=8)
# (§2) After baseline measurements, acute lung injury and septic shock was induced by intravenous infusion of LPS 25 μg/kg/h in saline for 2.5 h, followed by 10 μg/kg/h for the remainder of the study. The pigs were followed by hemodynamics and blood gas measurements and were killed at the end of the experiment and tissue samples were taken, as described above.
# (§3) LPS infusion was started after baseline measurements and continued for 6 hours. Two and half hours after commencement of the endotoxin infusion, inhalation of NO 30 ppm was started and maintained for 3.5 hours. Measurements were taken every hour to check for any protective effect of INO therapy on the lung and extra-pulmonary organs.
# (§4) This group received endotoxin over 6 hours, as described above, and 2.5 hours after the start of endotoxin administration steroids were given i.v. and INO, 30 ppm, was commenced and continued for the remaining 3.5 hours study period.
# (§5) NO, 1000 ppm in N2, was added to a mixture of O2/N2 and administered through the low-flow inlet of the ventilator. The inspired gas was passed through a canister containing soda lime to absorb any NO2. […] The concentrations of inspired NO and NO2 were measured continuously, by chemiluminescence (9841 NOx, Lear Siegler Measurement Controls Corporation, Englewood, Colo., USA), in the inspiratory limb of the ventilator tubing.
# [2] = tested on: endotoxin pig model (LPS-induced acute lung injury and septic shock); assay: Histological changes of lung, liver and kidney tissues in endotoxin pig model; parameters: Congestion / Inflammatory cell infiltrate / Congestion and hemorrhage / Edema/ Hemorrage: key to the marks not given beside the values
# Procedure: as §1
# (§6) Anesthesia, surgery preparation and catheterizations were followed by 30 min of rest. Baseline measurements were then made. The pigs were followed for another 6 hours to establish control data over the whole study period. The pigs were killed after the last measurement with an intra-venous injection of KCl; and tissue samples were taken from the lung, liver and kidney for morphological and biochemical studies.
# as §2, §3, §4
# as §5, with “tubing. FIO2 was checked after addition of NO and kept stable at the pre-INO level.” for “tubing.”
# glucocorticoid receptor = assay: GR expression, immunohistochemical staining of tissue from endotoxin-exposed piglets; conditions: compared with LPS group
# Procedure: as §6
# (§7) Anesthesia, surgery and catheterizations were similar to the controls. After baseline measurements, acute lung injury and septic shock was induced by intravenous infusion of LPS 25 μg/kg/h in saline for 2.5 h, followed by 10 μg/kg/h for the remainder of the study. […]
# (§8) The antibodies were detected with the peroxidase-anti-peroxidase method using 3-amino-9-ethyl-carbazole (AEC, SIGMA Catalogue No. A-6926 Germany) as chromogen. […]
# (§9) An image-analysis system consisting of a 12-bit cooled charge-coupled device camera (Sensys KAF 1400, Photometrics, Tucson, AZ) mounted on a fully automated Leica (Wetzlar, Germany) DM RXA microscope was used to digitize grey-scale images to a dual-Pentium 200 MHz host computer. […] The optimal central wavelength was determined by measurement of the substrate in a Leica MPV SP microscope photometer system (courtesy of Leica).
# NF-κB = assay: Expression of NF-κB, immunohistochemical staining of tissue from endotoxin-exposed piglets
# Procedure: as §6, §7, §8, §9
# [3] = piglets during 6 h endotoxin infusion, treatment from 2.5 h
# [4] = Kidney, piglets, LPS infusion 6 h, treatment from 2.5 h (INO 30 ppm; hydrocortisone 3.5 mg/kg i.v.)
# [5] = Liver, piglets, LPS infusion 6 h, treatment from 2.5 h (INO 30 ppm; hydrocortisone 3.5 mg/kg i.v.)
substance,measurement,setting,value
nitric oxide [LPS + INO],"arterial oxygenation (PaO2), effect in words",[1]; [3],improved oxygenation; also recorded: prevented part of the fall in PaO2
same,"mean pulmonary artery pressure (MPAP), effect in words",[1]; [3],lowered MPAP but not back to normal; also recorded: attenuated the increase in MPAP
same,MPAP higher than in healthy controls,"[1]; piglets during endotoxin infusion with INO 30 ppm, p<0.01 vs healthy controls",75-80%
same,"histology changes of kidney tissue, in words","[2]; Kidney, endotoxin-exposed piglets, compared with LPS group / healthy",even less marked than in the LPS+Steroid group
same,Edema/ Hemorrage,[2]; [4],+++
same,Inflammatory cell infiltrate,[2]; [4],+++
same,"histology changes of liver tissue, in words","[2]; Liver, endotoxin-exposed piglets, compared with LPS group / healthy",much less than in the LPS group
same,Congestion and hemorrhage,[2]; [5],++
same,Destruction of the lobular structure,[2]; [5],+
same,Inflammatory cell infiltrate,[2]; [5],+++
same,"histology changes of lung tissue, in words","[2]; Lung, endotoxin-exposed piglets, compared with LPS group / healthy",even less of these changes
same,Inflammatory cell infiltrate,"[2]; Lung, piglets, LPS infusion 6 h, treatment from 2.5 h (INO 30 ppm for 3.5 h; hydrocortisone 3.5 mg/kg i.v.)",+++
same,Congestion,"[2]; Lung, piglets, LPS infusion 6 h, treatment from 2.5 h (INO 30 ppm; hydrocortisone 3.5 mg/kg i.v.)",+++
same,"inflammatory response, in words","[2]; endotoxin pig model, lung, liver and kidney (discussion)",attenuated the inflammatory response but only to a limited degree
same,"expression of glucocorticoid receptor in lung tissue, in words",glucocorticoid receptor,significantly raised
same,"NF-kB expression in lung tissue, in words",NF-κB,at a low level
